Assay results from patent US8618111B2, “5-alkynyl-pyrimidines” (Boehringer Ingelheim International GmbH, priority 2010, dated 2013).

How the values were obtained:
[1] = tested on: PC3 (human prostate carcinoma cell line) cells; experiment: PC3 proliferation test; assay type: cell-based; conditions: PC-3, 72 h, 3 days incubation, DNA dye fluorescence
Experimental: The test is based on measurement of cellular DNA content via fluorescent dye binding. Because cellular DNA content is highly regulated, it is closely proportional to cell number. The extent of proliferation is determined by comparing cell counts for samples treated with drugs with untreated controls.
PC3 (human prostate carcinoma cell line) cells are sown in microtitre plates and incubated overnight in culture medium at 37° C. and 5% CO2. The test substances are diluted stepwise and added to the cells such that the total volume is 200 μL/well. Cells to which diluent, but not substance, is added serve as controls.

mTOR = mTOR (Homo sapiens (Human), UniProt P42345); experiment: mTOR kinase activity assay (phosphorylation status of mTOR substrate 4E-BP1; TR-FRET); assay type: biochemical; conditions: GFP-4E-BP1 substrate, 8 μM ATP
Experimental: mTOR Kinase Activity Assay
(Phosphorylation Status of mTOR Substrate 4E-BP1; TR-FRET)
The mTOR kinase TR-FRET assay utilizes a physiologically relevant protein substrate for mTOR (4E-BP1, labeled with an acceptor fluorophore (Green Fluorescent Protein) and paired with a corresponding Tb-labeled phospho-specific antibody.
The assay itself is divided into two phases: the reaction phase and the detection phase. In the reaction phase, all components required for the kinase reaction are added to the well, including the labeled protein substrate. The reaction is allowed to incubate for 60 minutes. After the reaction, EDTA is added to stop the kinase reaction, and terbium-labeled antibody is added to bind phosphorylated product. Because the terbium chelate is stable at the EDTA concentrations used to stop a kinase assay, the antibody and EDTA can be pre-mixed prior to addition to minimize pipetting steps. Binding of the terbium labeled antibody to the fluorophore-labeled phosphorylated product brings the terbium and GFP into proximity, resulting in an increase in TR-FRET. In the presence of an inhibitor, formation of phosphorylated product is reduced, and the TR-FRET value is decreased.
• GFP-4E-BP1 substrate; Invitrogen order no. PV4759 • Lanthascreen Tb-anti-p4E-BP1 (pThr46) Antibody Kit; Invitrogen order no. PV4758 • FRAP1 (mTOR) kinase; Invitrogen order no.
400 nM GFP-4E-BP1, 8 μM ATP, ˜150 ng/mL mTOR, 50 mM HEPES pH 7.5, 0.01% Polysorbate 20, 1 mM EGTA, 10 mM MnCl2, and variable amounts of test compounds.
Note: Thaw and keep mTOR, the substrate, ATP, and the antibody on ice prior to making working dilutions. Working dilutions of these components can be kept at room temperature for short periods of time the day of use. • 1. Add 2 ml of 5× Assay Buffer to 8 ml water to prepare 10 ml of 1× Assay Buffer, wherein the concentration of 1× Assay Buffer is 50 mM HEPES pH 7.5, 0.01% Polysorbate 20, 1 mM EGTA, and 10 mM MnCl2. • 2. Prepare Antibody/EDTA Solution by first adding 2.75 μl of Tb-anti p4E-BP1 Antibody to 2397 μl of LanthaScreen™ TR-FRET Dilution Buffer. Then, add 100 μl of 0.5 M EDTA. • 3. […] Then, add 1.6 μl of mTOR (0.45 mg/mL). • 4. Prepare ATP Solution by adding 3.2 μl of 10 mM ATP to 1997 μl of 1× Assay Buffer. Serial Dilution of Inhibitors (16 Point Curve)
Inhibitors are serially diluted in DMSO, then diluted to a 4× working concentration with 1× Assay Buffer. • 1. Dispense 40 μl of DMSO to two adjacent columns of a 96 well plate per compound (e.g. columns 1 and 2). • 2. Add 10 μl of inhibitor stock (10 mM) to the first well of the first column (A1) and mix. • 3. Remove 10 μl from A1 and transfer to the adjacent well in the next column (B1) and mix. • 4. Remove 10 μl from B1 and transfer to the next well in the first column (B2) and mix. • 5. […] Remove 4 μl of diluted compounds and add to 96 μl of 1× Assay Buffer in a 96-well plate making 4× compound dilutions. Kinase Reaction • 1. Add 2.5 μl of 4X compound dilutions to a 384-well plate. • 2. […] Preincubate for […] at RT (shaker). • 5. Add 5 μl of ATP Solution to all wells to start reactions. • 6. Shake the assay plate on a plate shaker for 30 seconds. • 7. Incubate the assay plate for one hour at room temperature (20-25° C.). Stop Step and Fluorescence Detection • 1. Add 10 μl of Antibody/EDTA Solution to each well in columns 1-9. • 2. Shake the assay plate on a plate shaker for 30 seconds. • 3. Incubate the assay plate for one hour at room temperature (20-25° C.). • 4. Measure the GFP (FRET) and terbium (reference) emission signals on a fluorescence plate reader (e.g. Perkin Elmer Envision). Data Analysis • 1. Calculate the emission ratio for each sample by dividing the GFP (FRET) signal by the terbium (reference) signal. • 2.

PI3Kalpha = PI3Kalpha (Homo sapiens (Human), UniProt P42336); experiment: Inhibition of PI3Kalpha-induced PIP-2 phosphorylation (filter-binding assay); assay type: biochemical; conditions: 33P-ATP
Experimental: Inhibition of PI3Kalpha-Induced PIP-2 Phosphorylation
Method Type: Filter-Binding-Assay
Aliquoted in desired amounts and stored at −80° C. Final assay concentration 25 ng/well.

Chain of mTOR (P42345 1360-2549): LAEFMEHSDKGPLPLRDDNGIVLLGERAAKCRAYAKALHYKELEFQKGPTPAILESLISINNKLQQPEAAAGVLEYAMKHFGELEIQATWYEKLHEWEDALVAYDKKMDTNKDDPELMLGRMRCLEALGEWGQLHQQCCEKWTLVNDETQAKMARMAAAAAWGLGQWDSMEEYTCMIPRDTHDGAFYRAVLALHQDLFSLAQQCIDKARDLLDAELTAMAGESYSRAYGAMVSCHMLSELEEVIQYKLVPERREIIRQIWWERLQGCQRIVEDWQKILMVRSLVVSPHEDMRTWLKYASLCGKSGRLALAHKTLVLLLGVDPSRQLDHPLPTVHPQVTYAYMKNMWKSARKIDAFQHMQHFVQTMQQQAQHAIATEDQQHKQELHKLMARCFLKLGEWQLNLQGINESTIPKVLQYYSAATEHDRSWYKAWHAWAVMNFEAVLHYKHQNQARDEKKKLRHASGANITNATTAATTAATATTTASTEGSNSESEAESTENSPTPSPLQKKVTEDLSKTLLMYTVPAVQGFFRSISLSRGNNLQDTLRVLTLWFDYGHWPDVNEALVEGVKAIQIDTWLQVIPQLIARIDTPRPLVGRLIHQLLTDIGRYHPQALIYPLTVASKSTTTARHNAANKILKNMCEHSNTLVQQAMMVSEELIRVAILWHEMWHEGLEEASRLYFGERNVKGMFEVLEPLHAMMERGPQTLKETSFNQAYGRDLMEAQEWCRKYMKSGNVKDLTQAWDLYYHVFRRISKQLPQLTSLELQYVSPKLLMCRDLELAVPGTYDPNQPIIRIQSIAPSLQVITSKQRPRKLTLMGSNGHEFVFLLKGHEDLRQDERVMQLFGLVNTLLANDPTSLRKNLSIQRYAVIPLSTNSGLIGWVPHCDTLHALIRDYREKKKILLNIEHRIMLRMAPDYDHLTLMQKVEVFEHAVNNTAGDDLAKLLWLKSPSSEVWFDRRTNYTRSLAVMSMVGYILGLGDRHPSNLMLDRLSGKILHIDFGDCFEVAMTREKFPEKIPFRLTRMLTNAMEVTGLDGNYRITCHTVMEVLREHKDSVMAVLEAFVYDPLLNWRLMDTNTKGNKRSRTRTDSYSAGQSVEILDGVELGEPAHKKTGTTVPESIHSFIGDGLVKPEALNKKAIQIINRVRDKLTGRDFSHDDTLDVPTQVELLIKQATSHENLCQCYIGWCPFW
Chain of PI3Kalpha (P42336 whole entry, species assumed): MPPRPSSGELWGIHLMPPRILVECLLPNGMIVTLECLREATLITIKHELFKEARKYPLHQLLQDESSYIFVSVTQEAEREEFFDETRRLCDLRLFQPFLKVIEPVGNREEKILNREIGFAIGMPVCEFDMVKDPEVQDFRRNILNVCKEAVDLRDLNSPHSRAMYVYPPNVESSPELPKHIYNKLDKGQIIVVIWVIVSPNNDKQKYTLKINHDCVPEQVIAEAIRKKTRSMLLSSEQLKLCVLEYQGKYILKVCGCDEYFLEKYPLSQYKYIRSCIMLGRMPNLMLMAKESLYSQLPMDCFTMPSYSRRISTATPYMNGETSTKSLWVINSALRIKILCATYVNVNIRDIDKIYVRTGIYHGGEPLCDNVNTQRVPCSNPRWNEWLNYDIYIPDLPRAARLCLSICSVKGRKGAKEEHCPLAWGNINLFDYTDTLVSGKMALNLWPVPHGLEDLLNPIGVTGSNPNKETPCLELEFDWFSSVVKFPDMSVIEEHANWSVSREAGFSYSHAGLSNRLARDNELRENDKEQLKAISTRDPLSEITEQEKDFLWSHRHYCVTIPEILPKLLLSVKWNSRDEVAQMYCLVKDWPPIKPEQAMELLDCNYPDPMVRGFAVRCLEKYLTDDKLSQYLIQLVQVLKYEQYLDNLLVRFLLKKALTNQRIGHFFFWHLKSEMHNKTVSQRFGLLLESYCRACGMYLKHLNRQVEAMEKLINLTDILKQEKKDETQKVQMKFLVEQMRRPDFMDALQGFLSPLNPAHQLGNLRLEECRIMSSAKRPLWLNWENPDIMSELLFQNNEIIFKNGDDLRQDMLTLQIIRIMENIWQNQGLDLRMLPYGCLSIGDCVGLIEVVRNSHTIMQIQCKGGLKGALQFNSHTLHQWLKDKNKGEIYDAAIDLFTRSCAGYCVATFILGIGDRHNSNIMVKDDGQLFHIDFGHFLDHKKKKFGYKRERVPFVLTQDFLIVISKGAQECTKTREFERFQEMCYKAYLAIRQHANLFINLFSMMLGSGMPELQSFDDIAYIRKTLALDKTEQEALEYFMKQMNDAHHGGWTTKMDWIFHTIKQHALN
Chain of PI3Kalpha (P27986 whole entry partner, species assumed): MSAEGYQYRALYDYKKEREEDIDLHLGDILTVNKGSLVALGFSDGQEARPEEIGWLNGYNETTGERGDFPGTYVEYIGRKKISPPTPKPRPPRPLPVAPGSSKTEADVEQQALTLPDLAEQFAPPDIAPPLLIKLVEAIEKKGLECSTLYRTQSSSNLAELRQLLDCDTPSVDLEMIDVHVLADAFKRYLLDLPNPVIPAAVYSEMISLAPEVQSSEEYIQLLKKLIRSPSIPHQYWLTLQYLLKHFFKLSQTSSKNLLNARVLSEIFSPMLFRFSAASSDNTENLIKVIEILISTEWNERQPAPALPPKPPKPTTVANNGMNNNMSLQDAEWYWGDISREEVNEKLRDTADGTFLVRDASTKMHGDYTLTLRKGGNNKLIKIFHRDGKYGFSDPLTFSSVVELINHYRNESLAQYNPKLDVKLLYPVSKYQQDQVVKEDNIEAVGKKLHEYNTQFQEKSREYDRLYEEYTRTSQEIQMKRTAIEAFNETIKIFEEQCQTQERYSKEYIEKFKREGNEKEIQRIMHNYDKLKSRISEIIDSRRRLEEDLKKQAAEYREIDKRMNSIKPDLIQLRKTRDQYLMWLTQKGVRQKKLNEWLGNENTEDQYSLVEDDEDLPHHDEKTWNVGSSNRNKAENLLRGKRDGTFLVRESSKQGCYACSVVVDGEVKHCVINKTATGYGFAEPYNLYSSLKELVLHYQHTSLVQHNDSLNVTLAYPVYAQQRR

SMILES | EC50 [1] | IC50 (mTOR) | IC50 PI3Ka (PI3Kalpha)
Cc1ncnc(N2CCC(O)(Cc3ccccc3)CC2)c1C#Cc1ccc(N)nc1 [Example B-28] | 0.195 µM | 0.05 µM | 0.07 µM
CC(=O)NCC1CCN(c2ncnc(C)c2C#Cc2ccc(N)nc2)CC1 [Example F-1] | 0.135 µM | 0.015 µM | 0.036 µM
CCc1ncnc(N2CCN(CCOC)CC2)c1C#Cc1ccc(N)nc1 [Example B-55] | 0.191 µM | 0.026 µM | 0.718 µM
Cc1ncnc(N2CCN(C)CC2)c1C#Cc1ccc(N)nc1 [Example B-8] | 0.277 µM | 0.056 µM | 0.547 µM
Cc1ncnc(N2CCC(CC(=O)N(C)C)CC2)c1C#Cc1ccc(N)nc1 [Example E-1] | 0.221 µM | 0.045 µM | 0.054 µM
CCc1ncnc(N2CCC(NC(C)=O)CC2)c1C#Cc1ccc(N)nc1 [Example B-21] | 0.162 µM | 0.019 µM | 0.083 µM
COCCC(=O)NCC1CCN(c2ncnc(C)c2C#Cc2ccc(N)nc2)CC1 [Example F-5] | 0.141 µM | 0.018 µM | 0.069 µM
Cc1ncnc(N2CCCOCC2)c1C#Cc1ccc(N)nc1 [Example B-6] | 0.441 µM | 0.072 µM | 0.246 µM
CCc1ncnc(N2CCN(C(=O)c3ccccc3)CC2)c1C#Cc1ccc(N)nc1 [Example G-5] | 0.225 µM | 0.157 µM | 0.11 µM
CCc1ncnc(N2CCNC(=O)CC2)c1C#Cc1ccc(N)nc1 [Example B-54] | 0.211 µM | 0.014 µM | 0.133 µM
CCc1ncnc(N2CCC(O)(C3CCCCC3)CC2)c1C#Cc1ccc(N)nc1 [Example B-12] | 0.094 µM | 0.016 µM | 0.189 µM
Cc1ncnc(N2CCC3(CCNC3=O)CC2)c1C#Cc1ccc(N)nc1 [Example B-84] | 0.126 µM | 0.019 µM | 0.032 µM
CCc1ncnc(N2CCC3(CCNC3=O)CC2)c1C#Cc1ccc(N)nc1 [Example B-85] | 0.153 µM | 0.03 µM | 0.095 µM
Cc1ncnc(N2CCC(O)(C(F)(F)F)CC2)c1C#Cc1ccc(N)nc1 [Example B-32] | 0.015 µM | 0.003 µM | 0.024 µM
Cc1ncnc(N2CCC(O)(C3CCCCC3)CC2)c1C#Cc1ccc(N)nc1 [Example B-74] | 0.195 µM | 0.03 µM | 0.098 µM
Cc1ncnc(N2CCOC(C)(C)C2)c1C#Cc1ccc(N)nc1 [Example B-1] | 0.112 µM | 0.105 µM | 0.046 µM
CCc1ncnc(N2CCN(C(=O)c3ccco3)CC2)c1C#Cc1ccc(N)nc1 [Example G-7] | 0.197 µM | 0.06 µM | 0.037 µM
Cc1ncnc(N2CCC3(CCN(C)CC3)CC2)c1C#Cc1ccc(N)nc1 [Example B-80] | 0.161 µM | 0.025 µM | 0.099 µM
CCc1ncnc(N2CCCC(CO)C2)c1C#Cc1ccc(N)nc1 (stereo not drawn) [Example B-49] | 0.124 µM | 0.028 µM | 0.073 µM
CCc1ncnc(N2CCN(C)CC2)c1C#Cc1ccc(N)nc1 [Example B-56] | 0.268 µM | 0.057 µM | 1.551 µM
CCc1ncnc(N2CCN(C(=O)c3ccccn3)CC2)c1C#Cc1ccc(N)nc1 [Example G-2] | 0.138 µM | 0.09 µM | 0.047 µM

SMILES | EC50 [1] | IC50 (mTOR) | IC50 PI3Ka (PI3Kalpha)
CCc1ncnc(N2CCn3c(C)cnc3C2)c1C#Cc1ccc(N)nc1 [Example B-78] | 0.101 µM | 0.031 µM | 0.072 µM
CCc1ncnc(N2CCC(O)(C(F)(F)F)CC2)c1C#Cc1ccc(C)nc1 [Example B-31] | 0.08 µM | 0.037 µM | 0.172 µM
CCc1ncnc(N2CCC(CO)CC2)c1C#Cc1ccc(C)nc1 [Example B-72] | 0.474 µM | 0.07 µM | 0.134 µM
CCc1ncnc(N2CCC(O)(CC)CC2)c1C#Cc1ccc(C)nc1 [Example B-33] | 0.152 µM | 0.051 µM | 0.102 µM
CCc1ncnc(N2CCC(O)CC2)c1C#Cc1ccc(C)nc1 [Example B-70] | 0.684 µM | 0.141 µM | 0.139 µM
COCCN1CCN(c2ncnc(C)c2C#Cc2ccc(N)nc2)CC1 [Example B-2] | 0.301 µM | 0.032 µM | 0.145 µM
CCc1ncnc(N2CCC(OC)CC2)c1C#Cc1ccc(C)nc1 [Example B-68] | 0.589 µM | 0.122 µM | 0.183 µM
Cc1ncnc(N2CCC(CNC(=O)C3CCCCC3)CC2)c1C#Cc1ccc(N)nc1 [Example F-6] | 0.277 µM | 0.078 µM | 0.051 µM
CCOC1CCN(c2ncnc(CC)c2C#Cc2ccc(C)nc2)CC1 [Example B-69] | 0.783 µM | 0.168 µM | 0.099 µM
CCc1ncnc(N2CCS(=O)(=O)CC2)c1C#Cc1ccc(N)nc1 [Example B-53] | 0.142 µM | 0.012 µM | 0.38 µM
CCc1ncnc(N2CCN(C(=O)C3CC3)CC2)c1C#Cc1ccc(N)nc1 [Example G-4] | 0.206 µM | 0.113 µM | 0.046 µM
CCc1ncnc(N2CCOC(C)(C)C2)c1C#Cc1ccc(N)nc1 [Example B-50] | 0.056 µM | 0.03 µM | 0.049 µM
CCc1ncnc(N2CCC3(CCN(C)C3=O)CC2)c1C#Cc1ccc(N)nc1 [Example B-77] | 0.043 µM | 0.008 µM | 0.067 µM
Cc1ncnc(N2CCn3c(C)cnc3C2)c1C#Cc1ccc(N)nc1 [Example B-76] | 0.233 µM | 0.097 µM | 0.06 µM
Cc1ncnc(N2CCC(CC(C)(C)O)CC2)c1C#Cc1ccc(N)nc1 [Example B-13] | 0.051 µM | 0.018 µM | 0.029 µM
CCc1ncnc(N2CCC3(CCN(C(=O)COC)CC3)CC2)c1C#Cc1ccc(N)nc1 [Example G-12] | 0.041 µM | 0.032 µM | 0.037 µM
Cc1ncnc(N2CCC3(CCN(C)C3=O)CC2)c1C#Cc1ccc(N)nc1 [Example B-75] | 0.092 µM | 0.01 µM | 0.048 µM
Cc1ncnc(N2CCN(CC(C)(C)O)CC2)c1C#Cc1ccc(N)nc1 [Example B-79] | 0.238 µM | 0.018 µM | 0.053 µM
Cc1ncnc(N2CCNC(=O)CC2)c1C#Cc1ccc(N)nc1 [Example B-10] | 0.437 µM | 0.041 µM | 0.093 µM
CCc1ncnc(N2CCC3(CCN(C(C)=O)CC3)CC2)c1C#Cc1ccc(N)nc1 [Example G-11] | 0.055 µM | 0.03 µM | 0.036 µM
CCc1ncnc(N2CCC(C)(O)CC2)c1C#Cc1ccc(N)nc1 [Example B-47] | 0.046 µM | 0.005 µM | 0.036 µM
